Test results reported in publication PMC5433425 (PeerJ, 2017).
“And” between values parts separate entries of the source, which are not always exact repeats. Equal entries are not always repeated. Where two headings read alike, the source gives them in different places. Peptide text beside a SMILES is read from it. * marks the point of attachment. βNA = c1ccc2cc(N*)ccc2c1

Columns and labels:
[1] = test system: E. coli AG100tet; experiment: EtBr accumulation by real-time fluorometry; conditions: EtBr 2 µg/ml + inhibitor 80 µM
[2] = test system: E. coli AG100; experiment: Membrane permeability assay (Live/Dead BacLight)
[3] = test system: E. coli AG100tet; experiment: microbe, parasite or virus in culture; format: cell-based, Escherichia coli; conditions: for MIC: Escherichia coli, AG100TET
Description: (§1) The assays were performed in triplicate and the MIC value was given as result of at least two concordant values.

[4] = test system: E. coli AG100; experiment: Membrane potential assay (BacLight, DiOC2(3)); conditions: 80 µM
[5] = test system: E. coli AG100; experiment: Checkerboard synergy assay (MIC of antibiotics/EtBr with efflux inhibitor); format: cell-based, Escherichia coli; conditions: Escherichia coli
Description: as §1

[6] = 80 uM, raw well reading, listed as PAN

## NC(N)=NCCC[C@H](NC(=O)[C@@H](N)Cc1ccccc1)C(=O)Nc1ccc2ccccc2c1 [PAβN] (H-Phe-Arg-βNA)
[1]; cycle 1
  EtBr fluorescence: 11.1278
[1]; cycle 2
  EtBr fluorescence: 12.695
[1]; cycle 3
  EtBr fluorescence: 14.0098
[1]; cycle 4
  EtBr fluorescence: 14.9916
[1]; cycle 5
  EtBr fluorescence: 15.9316
[1]; cycle 6
  EtBr fluorescence: 16.6928
[1]; cycle 7
  EtBr fluorescence: 17.1135
[1]; cycle 8
  EtBr fluorescence: 17.7313
[1]; cycle 9
  EtBr fluorescence: 18.0085
[1]; cycle 10
  EtBr fluorescence: 18.4427
[1]; cycle 11
  EtBr fluorescence: 18.7463
[1]; cycle 12
  EtBr fluorescence: 18.8264
[1]; cycle 13
  EtBr fluorescence: 19.2404
[1]; cycle 14
  EtBr fluorescence: 19.2594
[1]; cycle 15
  EtBr fluorescence: 19.2787
[1]; cycle 16
  EtBr fluorescence: 19.7369
[1]; cycle 17
  EtBr fluorescence: 19.738
[1]; cycle 18
  EtBr fluorescence: 20.2008
[1]; cycle 19
  EtBr fluorescence: 19.7958
[1]; cycle 20
  EtBr fluorescence: 20.1672
[1]; cycle 21
  EtBr fluorescence: 20.6387
[1]; cycle 22
  EtBr fluorescence: 20.6639
[1]; cycle 23
  EtBr fluorescence: 21.3214
[1]; cycle 24
  EtBr fluorescence: 21.3175
[1]; cycle 25
  EtBr fluorescence: 21.5239
[1]; cycle 26
  EtBr fluorescence: 21.9663
[1]; cycle 27
  EtBr fluorescence: 22.3215
[1]; cycle 28
  EtBr fluorescence: 22.6925
[1]; cycle 29
  EtBr fluorescence: 23.1641
[1]; cycle 30
  EtBr fluorescence: 23.4062
[2]; [6]
  BacLight Live/Dead fluorescence 485/20,528/20: 168 and 192
  BacLight Live/Dead fluorescence 485/20,590/35: 43 and 57
[2]; AG100, 80 µM
  membrane permeability increase / membrane permeation: 14%
[3]; AG100tet (AcrAB-overexpressing strain)
  decrease in EtBr MIC: 128 fold
[3]; read-out: MIC of EtBr in presence of the efflux inhibitor, AG100tet, inhibitor 40 μM
  MIC: 256 µg/mL
[3]; read-out: MIC of EtBr in presence of the efflux inhibitor, AG100tet, inhibitor 80 μM
  MIC: 128 µg/mL
[3]; read-out: MIC of EtBr in presence of the efflux inhibitor, AG100tet, inhibitor 160 μM
  MIC: 4 µg/mL
[3]; read-out: MIC of OFX in presence of the efflux inhibitor, AG100tet, inhibitor 40 μM
  MIC: 0.06 µg/mL
[3]; read-out: MIC of OFX in presence of the efflux inhibitor, AG100tet, inhibitor 80 μM
  MIC: 0.03 µg/mL
[3]; read-out: MIC of OFX in presence of the efflux inhibitor, AG100tet, inhibitor 160 μM
  MIC: 0.03 µg/mL
[3]; read-out: MIC of OXA in presence of the efflux inhibitor, AG100tet, inhibitor 40 μM
  MIC: 256 µg/mL
[3]; read-out: MIC of OXA in presence of the efflux inhibitor, AG100tet, inhibitor 80 μM
  MIC: 256 µg/mL
[3]; read-out: MIC of OXA in presence of the efflux inhibitor, AG100tet, inhibitor 160 μM
  MIC: 64 µg/mL
[3]; read-out: MIC of TET in presence of the efflux inhibitor, AG100tet, inhibitor 40 μM
  MIC: 8 µg/mL
[3]; read-out: MIC of TET in presence of the efflux inhibitor, AG100tet, inhibitor 80 μM
  MIC: 4 µg/mL
[3]; read-out: MIC of TET in presence of the efflux inhibitor, AG100tet, inhibitor 160 μM
  MIC: 2 µg/mL
[4]
  membrane depolarization: 14%
[5]; AG100, AG100, inhibitor 40 μM, read-out: MIC of OXA in presence of the efflux inhibitor
  MIC: 64 µg/mL
[5]; AG100, AG100, inhibitor 80 μM, read-out: MIC of OXA in presence of the efflux inhibitor
  MIC: 64 µg/mL
[5]; AG100, AG100, inhibitor 160 μM, read-out: MIC of OXA in presence of the efflux inhibitor
  MIC: 64 µg/mL
[5]; AG100, read-out: MIC of EtBr in presence of the efflux inhibitor, AG100, inhibitor 40 μM
  MIC: 100 µg/mL
[5]; AG100, read-out: MIC of EtBr in presence of the efflux inhibitor, AG100, inhibitor 80 μM
  MIC: 100 µg/mL
[5]; AG100, read-out: MIC of EtBr in presence of the efflux inhibitor, AG100, inhibitor 160 μM
  MIC: 100 µg/mL
[5]; AG100, read-out: MIC of OFX in presence of the efflux inhibitor, AG100, inhibitor 40 μM
  MIC: 0.06 µg/mL
[5]; AG100, read-out: MIC of OFX in presence of the efflux inhibitor, AG100, inhibitor 80 μM
  MIC: 0.06 µg/mL
[5]; AG100, read-out: MIC of OFX in presence of the efflux inhibitor, AG100, inhibitor 160 μM
  MIC: 0.06 µg/mL
[5]; AG100, read-out: MIC of TET in presence of the efflux inhibitor, AG100, inhibitor 40 μM
  MIC: 2 µg/mL
[5]; AG100, read-out: MIC of TET in presence of the efflux inhibitor, AG100, inhibitor 80 μM
  MIC: 1 µg/mL
[5]; AG100, read-out: MIC of TET in presence of the efflux inhibitor, AG100, inhibitor 160 μM
  MIC: 0.06 µg/mL
